Where two headings read alike, the source gives them in different places.
Key:
Format in all cases: cell-based
[1] = test system: luciferase-expressing Saccharomyces cerevisiae; details: S. cerevisiae, 8 hours culturing after addition
Description: Transformation was performed using Saccharomyces cerevisiae distributed by Biotechnology Center, National Institute of Technology and Evaluation, whereby luciferase-expressing microorganisms were produced. A vector pYES2 (Thermo Fisher Scientific) was digested with HindIII and XbaI, and a synthetic (synthesized by Thermo Fisher Scientific on commission) a factor-luciferase gene having a HindIII cut site at one end and an XbaI cut site at the other end was inserted into the vector. The microorganisms were transformed by the a factor-luciferase gene-inserted pYES2 according to the method described in an instruction manual of pYES2. The luciferase-expressing microorganisms were inoculated using a platinum loop into YPD broth (yeast extract 1 wt % (Difco), bacto peptone 2 wt % (Difco), and glucose 2 wt %) and were shake-cultured at 200 rpm at 30° C. for 15 hours. Then, the thus-obtained broth was resuspended in 125-ml YPD broth (containing 100 mM potassium hydrogen phosphate buffer; pH: 6) to a final optical density (hereinafter sometimes abbreviated as “OD”) of 0.1 OD/ml.
The optical density of the broth was measured under the same conditions as for “Method of measuring the optical density of broth” described later.
Further, the resuspended broth was continued to be shake-cultured at 1100 rpm at 30° C. for about 17 hours until OD was 20 to 30. When OD was 20 to 30, the broth was centrifuged (1500 g, 10 min), and resuspended in 125-ml galactose-inducing broth (the YPD broth containing 100 mM potassium phosphate buffer and also containing 2% galactose instead of glucose; pH: 6), followed by culturing at 1100 rpm at 30° C. for 2 hours.
Subsequently, the surfactant described in Table 1 was added to the broth in the amount (wt %) described in Table 1, and the broth was cultured at 1100 rpm at 30° C. for 8 hours. Subsequently, the broth was sampled for measuring the optical density (optical density at the end of culturing) and for measuring the secretion efficiency. Then, these samples were subjected to centrifugation using a centrifuge to separate bacteria and the supernatant from the broth. Then, the supernatant and the bacteria were collected.
(§1) The optical density of the broth containing the microorganisms collected by sampling was measured in a quartz cell (light path of 1 cm) using a spectrophotometer (UV-1700, Shimadzu Corporation).
(§2) The broth was centrifuged at 1500 rpm at 4° C. for 5 minutes, and the supernatant was discarded. The precipitate was resuspended in a saline solution in an amount equal to the amount of the sample solution, and was diluted in the saline solution to obtain an appropriate absorbance (0.1 to 0.8). Then, the absorbance at 600 nm was measured. The optical density of the broth was calculated using the following mathematical formula (1).
(§3) Broth optical density(OD)=(Absorbance of diluted broth at 600 nm)×dilution factor of broth (Mathematical formula 1)

[2] = test system: acid phosphatase-expressing Candida boidinii; details: 8 hours culturing after addition
Description: (§4) Candida boidinii was transformed and acid phosphatase-expressing microorganisms were produced based on a method described in a known document (Regulation and evaluation of five methanol-inducible promoters in the methylotrophic yeast Candida boidinii, H. Yurimoto et al., Biochimica et Biophysica Acta, 1493, 2000, pp. 56-63). The acid phosphatase-expressing microorganisms were inoculated using a platinum loop into BMGY broth, and were shake-cultured at 200 rpm at 30° C. for 15 hours. Then, the thus-obtained broth was resuspended in 125-ml BMGY broth to a final OD of 0.1 OD/ml. Further, the resuspended broth was continued to be shake-cultured at 1100 rpm at 30° C. for about 17 hours until OD was 2 to 5. When OD was 2 to 5, methanol was added to a concentration of 2 v/v %, followed by culturing at 1100 rpm at 30° C. for 2 hours.
(§5) Two hours later, the surfactant described in Table 3 was added to the broth in the weight described in Table 3, and the broth was cultured at 1100 rpm at 30° C. for 8 hours. Eight hours later, the broth was sampled for measuring the optical density (optical density at the end of culturing), and was subjected to centrifugation using a centrifuge to separate bacteria and the supernatant from the broth. Then, the supernatant and the bacteria were collected.
as §1, §2, §3

[3] = test system: acid phosphatase-expressing Candida boidinii; details: 8 hours
Description: as §4, §5
Then, 50 mM acetic acid NaBf (pH 4.0) was added to the bacteria, followed by centrifugation, whereby the bacteria were washed. The washed bacteria were resuspended in 50 mM acetic acid NaBf (pH 4.0), whereby a sample for measuring the acid phosphatase activity on the bacterial surface was obtained.
The supernatant obtained in each of Examples 23 to 33 and Comparative Example 3 was mixed with a 2 M sodium acetate buffer (pH 4.0) in an amount of 5 μl that is 1/40 of the amount of the supernatant. The buffer-containing supernatant or the sample for measuring the bacterial surface obtained in each of Examples 23 to 33 was mixed with a substrate solution (50 mM sodium acetate buffer containing 0.64 mg/ml of p-nitrophenylphosphate; pH 4.0) at a capacity ratio of 1:1, and the mixture was reacted at 35° C. for 10 minutes.
After the reaction, a 10% solution of trichloroacetic acid in an amount equal to the amount of the reaction solution was added to the reaction solution to terminate the reaction. To develop a color, a saturated sodium carbonate solution in an amount equal to the total amount of the reaction solution was added to the solution in which the reaction has been terminated. The color-developed solution was centrifuged at 1500×g for 5 minutes to remove the insoluble fraction, and the absorbance at 420 nm was measured using a microplate reader “PowerWave” (Biotek). The reference wavelength was set to 630 nm.
The acid phosphatase activity of each of the supernatant and the sample for measuring the bacterial surface was calculated from the following formula. The thus-obtained acid phosphatase activity of the supernatant was regarded as the “acid phosphatase activity of secreted and produced useful substance” and the acid phosphatase activity of the sample for measuring the bacterial surface was regarded as the “acid phosphatase activity of useful substance remaining on bacterial surface”.
Acid phosphatase activity=((Abs 420 nm)−(Abs 630 nm))/(optical density at the end of culturing)
For each of Examples 23 to 33 and Comparative Example 3, the obtained value of the “acid phosphatase activity of secreted and produced useful substance” and the obtained value of the “acid phosphatase activity of useful substance remaining on bacterial surface” were used to calculate the secretion efficiency from the following mathematical formula.
Secretion efficiency (%)=100×(Acid phosphatase activity of secreted and produced useful substance)/(total acid phosphatase activity) […]

[4] = surfactant 0.03 wt % of broth, Examples 2, 5-11
[5] = surfactant 0.003 wt % of broth, Example 23
[6] = surfactant 0.03 wt % of broth, Examples 24, 27-33
[7] = surfactant 0.3 wt % of broth, Example 25
[8] = surfactant 3 wt % of broth, Example 26

Row | Compound | Optical density (OD) of broth at the end of culturing [1, 4] | Optical density (OD) of broth at the end of culturing [2, 6] | Secretion efficiency (%) [3, 6] | other results
1 | CCCCCCCCCCCCNCCC(=O)O | 21.2 OD | 6.0 OD | 63% | Optical density (OD) of broth at the end of culturing ([1]; surfactant 0.003 wt % of broth, Example 1): 23.5 OD; Optical density (OD) of broth at the end of culturing ([1]; surfactant 0.3 wt % of broth, Example 3): 18.2 OD; Optical density (OD) of broth at the end of culturing ([1]; surfactant 3 wt % of broth, Example 4): 10.9 OD; Optical density (OD) of broth at the end of culturing [2, 5]: 5.1 OD; Optical density (OD) of broth at the end of culturing [2, 7]: 2.7 OD; Optical density (OD) of broth at the end of culturing [2, 8]: 2.7 OD; Secretion efficiency (%) [3, 5]: 49%; Secretion efficiency (%) [3, 7]: 77%; Secretion efficiency (%) [3, 8]: 79%
2 | CCCCCCCCCCCC[N+](C)(C)C.[Cl-] [Surfactant (A2-1), lauryl trimethyl ammonium chloride] | 13.8 OD | 3.94 OD | 61% | 
3 | CCCCCCCCCCCC[N+](C)(C)CCCS(=O)(=O)O.[OH-] [Surfactant (A3-3), dodecyldimethyl(3-sulfopropyl)ammonium hydroxide] | 21.8 OD | 8.07 OD | 54% | 
4 | CCCCCCCCCCCCCCCCOP(=O)([O-])OCC[N+](C)(C)C [Surfactant (A3-4), miltefosine, reference compound] | 21.1 OD | 7.91 OD | 54% | 
5 | CCCCCCCCCCCC[N+](C)(C)CC(=O)[O-] [Surfactant (A3-5), betaine lauryldimethylaminoacetate] | 20.4 OD | 7.33 OD | 61% | 
6 | sodium (2-dodecylamino)ethanesulfonate [Surfactant (A3-1)] | 22.0 OD | 5.7 OD | 57% | 
7 | sodium polyoxyethylene (average 2.5 mol adduct) lauryl ether sulfate [Surfactant (A1-1)] | 21.9 OD | 5.77 OD | 49% | 
8 | sodium polyoxyethylene (average 3 mol adduct) lauryl ether acetate [Surfactant (A1-2)] | 22.1 OD | 5.68 OD | 48% | 

Source: patent publication US20200032313A1 (SANYO CHEMICAL INDUSTRIES, LTD., priority 2017, published 2020)
